Test results taken from the supplement of paper PMC10307832.

Legend:
Test in all cases: relative viability (nuclei count vs DMSO), 5 days (fraction); higher = more cells survive
[1] = compound: C1=CC=C(C(=C1)C2=CC=C(C=C2)C3=CSC4=C3C(=C(C(=O)N4)C#N)O)O + C[C@]1(O)C[C@@H](c2nc(-c3ccc4ccc(-c5ccccc5)nc4c3)c3c(N)nccn32)C1 [Linsitinib] (partner 1 µM)
Procedure, shortened: (§1)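 Relative viability was taken as the ratio of nuclei in treated wells to nuclei in vehicle wells. Lung cancer cell lines in 1536-well plates received compounds by pin tool one day after seeding, either one drug alone or a fixed anchor-drug dose plus five library-drug doses (not always all listed) in √10 steps. Nuclei were counted on 4× images after 5 days of treatment, and values are medians of duplicate plates.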

[2] = compound: O=C(CCCCCCNC(=O)c1cnc(N(c2ccccc2)c2ccccc2)nc1)NO [Ricolinostat] + Nc1nc2[nH]cc(CCc3ccc(C(=O)N[C@@H](CCC(=O)O)C(=O)O)cc3)c2c(=O)[nH]1 [Pemetrexed] (partner 0.2 µM)
Procedure, shortened: as §1

[3] = compound: C1=CC=C(C(=C1)C2=CC=C(C=C2)C3=CSC4=C3C(=C(C(=O)N4)C#N)O)O + CC(C)C[C@H](NC(=O)[C@H](Cc1ccccc1)NC(=O)c1cnccn1)B(O)O [Bortezomib] (partner 0.002 µM)
Procedure, shortened: as §1

[4] = compound: CC1=CN2C(=O)C=C(N=C2C(=C1)C(C)NC3=CC=CC=C3)N4CCOCC4 [TGX 221] + CC(=O)c1c(C)c2cnc(Nc3ccc(N4CCNCC4)cn3)nc2n(C2CCCC2)c1=O [Palbociclib] (partner 0.5 µM)
Procedure, shortened: as §1

Cell Line	relative viability ([1]; first compound 0.08 µM)	relative viability ([1]; first compound 0.253 µM)	relative viability ([1]; first compound 0.8 µM)	relative viability ([1]; first compound 2.53 µM)	relative viability ([1]; first compound 8 µM)	relative viability ([2]; first compound 0.08 µM)	relative viability ([2]; first compound 0.253 µM)	relative viability ([2]; first compound 0.8 µM)	relative viability ([2]; first compound 2.53 µM)	relative viability ([3]; first compound 0.08 µM)	relative viability ([3]; first compound 0.253 µM)	relative viability ([3]; first compound 0.8 µM)	relative viability ([3]; first compound 2.53 µM)	relative viability ([3]; first compound 8 µM)	relative viability ([4]; first compound 0.08 µM)	relative viability ([4]; first compound 0.253 µM)	relative viability ([4]; first compound 0.8 µM)	relative viability ([4]; first compound 2.53 µM)	relative viability ([4]; first compound 8 µM)
A-427	1.09	1.12	1.11	1.15	1.18	0.711	0.941	0.828	0.832	0.963	1.05	1.02	1.03	1.06	0.542	0.546	0.513	0.504	0.516
NCI-H1975	0.926	0.802	1.04	1.02	0.796	0.329	0.279	0.277	0.269	0.357	0.348	0.436	0.41	0.343	0.532	0.558	0.629	0.452	0.526
HCC-827	1.02	1.04	0.995	0.993	0.955	0.23	0.256	0.232	0.212	0.967	1.05	1	1.08	1.07	0.489	0.468	0.487	0.436	0.425
UMC-11	0.834	0.738	1.11	1.24	0.875	0.751	0.767	0.728	0.374	0.519	0.742	0.56	0.8	0.487	0.299	0.328	0.306	0.338	0.374
NCI-H3122	1.1	1.07	1.06	1.05	1.02	0.18	0.205	0.207	0.198	1.02	1.06	1.06	0.993	1.11	0.168	0.154	0.208	0.169	0.184
LXF-289	0.978	0.961	0.986	1	0.973	0.935	0.775	0.895	0.792	0.974	0.973	1	1	0.986	0.595	0.628	0.612	0.641	0.568
NCI-H647	1.17	1.1	1.21	1.17	1.08	0.192	0.18	0.174	0.134	1.01	1.16	1.09	0.919	0.649	0.296	0.297	0.283	0.232	0.275
COR-L23	0.703	0.816	1.02	0.99	0.747	0.199	0.212	0.188	0.17	0.864	0.703	1.11	1.09	0.496	0.247	0.278	0.305	0.3	0.284
BEN	0.609	0.999	0.93	1.21	0.822	0.589	0.88	0.667	0.518	0.578	0.789	0.944	0.892	0.676	0.483	0.413	0.439	0.487	0.503
LC-2-ad	0.894	0.889	0.805	0.876	0.751	0.32	0.272	0.28	0.269	1	1.09	1.02	1	1.01	0.478	0.519	0.483	0.503	0.447
NCI-H650	0.857	0.817	0.737	0.914	0.716	0.643	0.912	0.861	0.734	0.583	0.833	0.772	0.936	0.617	0.303	0.294	0.307	0.32	0.273
NCI-H1563	1.16	1.06	1.11	1.23	1.31	0.788	0.767	0.74	0.726	0.543	0.953	0.909	0.785	0.759	–	–	–	–	–
NCI-H1793	0.679	1.12	0.747	0.856	0.508	0.603	0.76	0.815	0.811	–	–	–	–	–	0.282	0.277	0.271	0.273	0.223
HCC-78	0.534	0.73	0.551	0.484	0.462	–	0.84	0.902	0.88	0.529	0.771	0.536	0.417	0.428	–	0.428	0.464	0.397	0.435
LCLC-97TM1	0.197	0.203	0.222	0.198	0.164	0.152	0.157	0.137	0.157	0.344	0.44	–	0.572	0.343	0.184	0.263	0.238	0.206	0.232
NCI-H2009	1.14	1.24	1.17	1.15	1.15	0.977	1.02	0.965	0.92	1.07	1.05	0.827	0.967	0.832	0.216	0.191	0.118	0.175	0.166
H3255	0.912	1.06	0.854	0.967	0.78	0.494	0.544	0.553	0.557	0.79	0.802	0.646	0.789	0.686	0.312	0.342	0.331	0.29	0.321
EPLC-272H	–	1.46	1.23	1.24	0.888	0.448	0.365	0.334	0.297	–	0.973	0.852	0.858	0.652	0.324	0.35	0.32	0.328	0.289
NCI-H1734	0.734	0.849	0.882	1.01	0.646	0.446	0.414	0.448	0.473	0.852	0.787	1.04	0.924	0.545	0.235	0.332	0.351	0.317	0.289
NCI-H2087	1.14	1.04	0.946	1.08	0.966	0.656	0.646	0.608	0.584	0.609	1	0.796	0.833	0.899	0.214	0.234	0.237	0.21	0.248
NCI-H522	–	–	–	–	–	0.972	1.03	1.05	0.924	–	–	–	–	–	0.941	1.01	0.929	0.944	0.815
NCI-H1666	0.753	0.817	0.873	1	0.653	0.805	0.841	0.867	0.871	0.849	0.838	0.693	0.904	0.782	0.679	0.599	0.638	0.667	0.674

Cell Line	relative viability ([1]; first compound 0.08 µM)	relative viability ([1]; first compound 0.253 µM)	relative viability ([1]; first compound 0.8 µM)	relative viability ([1]; first compound 2.53 µM)	relative viability ([1]; first compound 8 µM)	relative viability ([2]; first compound 0.08 µM)	relative viability ([2]; first compound 0.253 µM)	relative viability ([2]; first compound 0.8 µM)	relative viability ([2]; first compound 2.53 µM)	relative viability ([3]; first compound 0.08 µM)	relative viability ([3]; first compound 0.253 µM)	relative viability ([3]; first compound 0.8 µM)	relative viability ([3]; first compound 2.53 µM)	relative viability ([3]; first compound 8 µM)	relative viability ([4]; first compound 0.08 µM)	relative viability ([4]; first compound 0.253 µM)	relative viability ([4]; first compound 0.8 µM)	relative viability ([4]; first compound 2.53 µM)	relative viability ([4]; first compound 8 µM)
NCI-H1915	1.2	1.15	1.08	1.19	1.01	0.399	0.416	0.458	0.397	0.768	0.993	1.06	1.11	0.831	0.491	0.497	0.536	0.498	0.473
NCI-H2342	–	–	–	–	–	0.734	0.785	0.719	0.637	–	–	–	–	–	0.541	0.529	0.492	0.517	0.531
Calu-6	0.95	1.1	1.06	1.01	0.786	–	–	–	–	1.18	1.14	1.26	1.06	0.971	–	–	–	–	–
A549	0.635	0.606	0.509	0.521	0.393	–	–	–	–	–	–	–	–	–	–	–	–	–	–
SK-MES-1	1.18	1.17	0.952	1.03	0.987	0.878	0.982	0.876	0.91	–	–	–	–	–	0.304	0.336	0.308	0.287	0.323
ABC-1	0.926	0.906	0.856	0.875	0.735	–	–	–	–	0.281	0.326	0.326	0.364	0.324	0.742	0.519	0.654	0.648	0.597
NCI-H1703	0.803	0.446	0.589	0.507	0.76	–	–	–	–	0.28	0.395	0.289	0.301	0.38	–	–	–	–	–
NCI-H1299	0.848	1	0.852	1.01	0.912	–	–	–	–	1.07	1.04	0.995	1	0.975	–	–	–	–	–
NCI-H727	0.242	0.238	0.284	0.237	0.237	–	–	–	–	0.643	1.18	0.986	0.714	0.747	0.643	0.518	0.667	0.679	0.602
NCI-H1944	1.19	1.18	1.09	1.14	1.19	0.565	0.588	0.565	0.39	–	–	–	–	–	–	0.327	0.332	0.277	0.245
NCI-H2170	–	–	–	–	–	0.247	0.242	0.281	0.244	–	–	–	–	–	0.332	0.423	0.393	0.365	0.334
ChaGo-K-1	–	–	–	–	–	0.253	0.255	0.262	0.27	0.658	0.955	0.957	1.21	0.954	0.853	0.835	0.916	0.921	0.935
NCI-H358	0.868	0.742	0.69	0.914	0.595	0.179	0.194	0.183	0.156	–	–	–	–	–	0.116	0.118	0.149	0.116	0.125
EBC-1	0.784	1.16	0.642	0.925	0.781	–	–	–	–	0.629	0.435	0.489	0.598	0.509	–	–	–	–	–
LK-2	0.34	0.553	0.479	0.717	0.344	0.217	0.256	0.231	0.216	–	–	–	–	–	0.647	0.612	0.621	0.673	0.833
NCI-H596	0.967	1.17	1.13	1.1	0.733	0.511	0.527	0.504	0.52	0.715	1.63	1.2	0.926	0.933	–	–	–	–	–
NCI-H1650	–	–	–	–	–	0.379	0.403	0.337	0.349	–	0.241	0.228	0.207	0.207	0.305	0.298	0.294	0.257	0.191
NCI-H1648	–	–	–	–	–	–	0.596	0.629	0.521	–	–	–	–	–	–	0.247	0.231	0.25	0.273
NCI-H1395	–	1.89	1.13	1.03	1.38	–	0.801	0.804	0.746	–	–	–	–	–	0.609	0.537	0.51	0.467	0.487
SW 900	–	–	–	–	–	0.496	0.488	0.491	0.441	–	–	–	–	–	–	0.429	0.427	0.356	0.295
IA-LM	0.479	1.9	0.198	0.855	0.376	–	–	–	–	0.672	1.13	0.879	1.01	0.58	–	–	–	–	–
